This note sets out measurements from patent US20020164348A1 (priority 2000, published 2002).

For one data set, the target named is poliovirus polymerase (Poliovirus type 1, UniProt P03300).
The target in the next data set is rhinovirus polymerase (Human rhinovirus 14, UniProt P03303). It counts as biochemical.
Data set [1] addresses poliovirus RNA-dependent RNA polymerase 3Dpol WT (Poliovirus type 1 (Mahoney), UniProt P03300 P03300:1749-2209). Description: filter. The following applies: tags: none stated, expressed in E. coli BL21(DE3) pLysS, N-terminal Met removed; label: 32P (alpha-32P CTP, T7 transcript); 20 bp blunt self-complementary duplex.
Data set [2] concerns the target T1, pJG-poliovirus 3D prey fusion (pJGPolio3D) (poliovirus Mahoney type 1, UniProt P03300 1749-2209).
T1 sequence: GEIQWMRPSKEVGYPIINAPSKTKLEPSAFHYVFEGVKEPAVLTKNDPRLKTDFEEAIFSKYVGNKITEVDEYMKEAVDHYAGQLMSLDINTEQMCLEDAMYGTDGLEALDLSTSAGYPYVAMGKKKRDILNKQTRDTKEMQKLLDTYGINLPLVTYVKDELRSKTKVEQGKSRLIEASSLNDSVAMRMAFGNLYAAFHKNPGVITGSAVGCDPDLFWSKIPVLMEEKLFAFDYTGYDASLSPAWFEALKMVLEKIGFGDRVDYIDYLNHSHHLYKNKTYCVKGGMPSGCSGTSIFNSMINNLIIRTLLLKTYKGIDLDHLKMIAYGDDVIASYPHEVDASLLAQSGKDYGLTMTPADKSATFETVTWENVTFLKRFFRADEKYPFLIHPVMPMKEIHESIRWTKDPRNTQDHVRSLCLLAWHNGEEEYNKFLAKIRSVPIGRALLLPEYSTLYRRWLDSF
As to the kind of experiment: yeast two-hybrid, colour on X-gal plates (- white); bait in row, prey in column.

rhinovirus polymerase, sequence (P03303 1720-2179 limits assumed): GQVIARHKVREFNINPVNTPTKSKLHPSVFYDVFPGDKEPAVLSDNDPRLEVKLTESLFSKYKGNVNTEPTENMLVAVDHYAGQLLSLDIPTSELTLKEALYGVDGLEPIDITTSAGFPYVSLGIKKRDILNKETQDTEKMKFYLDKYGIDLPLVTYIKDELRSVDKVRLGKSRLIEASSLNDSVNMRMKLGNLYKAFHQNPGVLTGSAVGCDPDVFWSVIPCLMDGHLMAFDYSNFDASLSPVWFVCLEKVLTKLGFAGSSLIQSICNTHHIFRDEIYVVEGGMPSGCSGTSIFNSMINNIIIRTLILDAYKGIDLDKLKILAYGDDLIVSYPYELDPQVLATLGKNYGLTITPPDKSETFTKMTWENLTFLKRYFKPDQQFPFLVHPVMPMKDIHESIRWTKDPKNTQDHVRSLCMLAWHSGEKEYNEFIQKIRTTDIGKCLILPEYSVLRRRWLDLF

As for `[Cl-].[Cl-].[Zn+2]` [ZnCl2], the “effect on decrease in specific activity with decreasing polymerase concentration” value at poliovirus polymerase is recorded as “nearly eliminates the decrease in specific activity”.

Turning to “KPHKCTFEGCRKSYSRSTNLRRHLNSH (SEQ ID NO:5) [Peptide 1]”, the “activity of the rhinovirus polymerase” value at rhinovirus polymerase is “inhibits”.

B1: 0.20 RNA (dsRNA)
RNA 1: GGCAGCUGCAUGCAGCUGCC
RNA 2: GGCAGCUGCAUGCAGCUGCC
B1: in data set [1], the binding result is “binds”.

B2: Lex202 vector control (bait vector without a polymerase) (other)
chain: MKALTARQQEVFDLIRDHISQTGMPPTRAEIAQRLGFRSPNAAEEHLKALARKGVIEIVSGASRGIRLLQEEEEGLPLVGRVAAGEPLLAQQHIEGHYQVDPSLFKPNADFLLRVSGMSMKDIGIMDGDLLAVHKTQDVRNGQVVVARIDDEVTVKRLKKQGNKVELLPENSEFKPIVVDLRQQSFTIEGLAVGVIRNGDWL
For the molecule B2, the binding result in data set [2] is recorded as “no binding”.
